Reference: patent publication US9617545B2, “Method for treating breast cancer by targeting breast cancer stem cell” (KYUNGPOOK NATIONAL UNIVERSITY INDUSTRY-ACADEMIC COOPERATION …, priority 2014, dated 2017)

What was measured:
MCF7/ADR cells [1] = assay: qRT-PCR of CSC, resistance and EMT markers after siRNA silencing; type: cell-based, human; details: for mRNA expression of markers (CD44, Integrin-α6, P-gp, Vimentin, N-cadherin, E-cadherin): FIG. 8A; for mRNA expression of markers (CD44, N-cadherin): FIG. 8B
Experimental: Total RNAs were extracted from the cultured cells using a TRIzoL reagent (Invitrogen), and cDNAs were synthesized using a cDNA synthetic kit (Promega) for reverse transcription-PCR.
In this case, the real-time PCR was performed in a Bio-Rad Real-Time PCR system using a SYBR Green PCR Master mix (Applied Biosystems), and the data was obtained by calculating an average value for separate experiments performed in at least triplicate.
(§1) siRNA transfection was performed using a Neon® Transfection system (Life technologies). After 48 hours, the expression of each gene was analyzed using qRT-PCR.
Therefore, to determine whether EXT1, LDHB, CD109, EFEMP2, RASIP1, and SERPINE1 were associated with the aggressive phenotype of cancer, the mRNA expression levels of cancer stem cell markers (CD44, and Integrin-α6 (ITGA6)), a resistance marker (P-gp), and EMT markers (Vimentin, N-cadherin, and E-cadherin) were determined using qRT-PCR.

[2] = system: PI3K-β-catenin signaling pathway; assay: Western blot of PI3K-β-catenin signaling pathway factors after siRNA treatment; type: cell-based, human; details: MCF7/ADR cells treated with siRNA; FIG. 11
Experimental: (§2) Proteins were electrophoresed on SDS-PAGE, and the separated proteins were transferred to a nitrocellulose membrane (Whatman), and then blocked at room temperature for 15 minutes in a TBS-5% non-fat milk solution supplemented with 0.1% Tween-20. The membrane was cultured overnight with a primary antibody at 4° C., cultured with a horseradish peroxidase-conjugated secondary antibody at room temperature for an hour, and developed using a West Pico chemiluminescent substrate (PIERCE).
(§3) The primary antibodies used herein were P-gp (Cell Signaling Technology, #12683, 1:1000), p-PI3K (Santa Cruz Biotechnology, sc-12929, 1:500), PI3K (Santa Cruz Biotechnology, sc-1637, 1:500), p-Akt (Cell Signaling Technology, #9271, 1:1000), Akt (Cell Signaling Technology, #9272, 1:1000), β-catenin (Cell Signaling Technology, #9562, 1:1000), and β-actin (Santa Cruz Biotechnology, sc-47778, 1:500).
as §1
Wnt signaling is a major pathway for maintaining stemness, and β-catenin is a particularly important regulator. Also, since the PI3K-Akt signaling pathway is known from previous research to regulate a Wnt-β-catenin signaling pathway, it was determined how the EXT1 and LDHB genes regulated the stemness, and whether the EXT1 and LDHB genes were associated with the pathways.
Therefore, it was confirmed that, when the MCF7/ADR cells were treated with siRNAs against the EXT1, LDHB, CD109, EFEMP2, RASIP1 and SERPINE1 genes (Table 3), the expression of β-catenin decreased, and the expression of phosphorylated PI3K (p-PI3K) in an active form of PI3K, and phosphorylated Akt (p-Akt) in an active form of Akt […] (see FIG. 11).

MCF7/ADR cells [3] = assay: CD44+/CD24− assay (flow cytometric assay) after siRNA silencing; type: cell-based, human; details: for CD44+/CD24− population decreased by: MCF7/ADR cells transfected with siRNA, FIG. 9A; for number of the cancer stem cells: genes silenced in the resistant cells, summary statement
Experimental: To detect cancer stem cells (CSCs) in the MCF7 and MCF7/ADR cells, a breast cancer stem cell surface antigen, CD44+/CD24−, was assayed.
Specifically, the 1×10^6 cells were labeled with anti-human CD44-APC and CD24-PE (BD biosciences). In this case, the antibody was diluted with a 5% BSA solution. The cells were cultured at room temperature for 25 minutes, washed, re-suspended in […] of 5% BSA, and then detected using BD FACS Aria III.
as §1

common cancer cells = assay: Cell viability of common cancer cells under gene expression inhibitor; type: cell-based; details: treatment with the gene expression inhibitor; summary statement
MCF7/ADR cells [4] = assay: ALDEFLUOR assay (ALDH+ population) after siRNA silencing; type: cell-based, human; details: MCF7/ADR cells transfected with siRNA; FIG. 9B
Experimental: Specifically, the cells were stained with […] bodipyaminoacetaldehyde (BAAA), and then cultured at 37° C. for 45 minutes. An ALDH1 inhibitor, diethylaminobenzaldehyde (DEAB), was used as the negative control. The 1 ×10^6 stained cells were assayed using BD FACS Aria III. In this case, the positive fluorescent ALDH1-expressed cells (ALDH+) were detected in a green fluorescent channel (520 to 540 nm).
as §1

P-glycoprotein (P-gp) = assay: Western blotting of P-gp after siRNA knockdown in MCF7/ADR cells; type: cell-based, human; details: gene silenced with siRNA 20 nM, FIG. 7
Experimental: as §2, §3, §1
To further evaluate whether the six genes finally screened in Example 4 regulated the drug resistance and the size and number of CSC populations, the genes were knocked down with siRNA, and an expression level of P-gp was determined using western blotting. That is, the MCF7/ADR cells were transfected with siRNA of each gene, and an expression level of P-gp was measured.

MCF7/ADR cells [5] = assay: Mammosphere formation assay after siRNA silencing; type: cell-based, human; details: for number and size of the mammospheres: MCF7/ADR cells, compared to the control, FIG. 10; for self-proliferation ability: genes silenced in the resistant cells, summary statement
Experimental: Since the breast cancer stem cells formed a mass of colonies in the form of floating spheres without attaching to a surface of a plate, the size and number of the masses were observed by a mammosphere formation assay to determine a cancer-stem-cell-specific effect.
Specifically, a single-cell suspension was cultured at a density of 1,000 to 15,000 cells/well (on an ultralow attachment culture plate (Corning CoStar)) using a MammoCult™ Human Medium kit (Stem Cell Technologies), and the spherical cells were counted and observed under a microscope.
as §1
To determine whether the EXT1 and LDHB regulated the self-renewal capacity of CSCs in the MCF7/ADR cells, a mammosphere formation assay was performed.

MCF7 and MCF7/ADR cells = assay: MTT assay: cell viability against doxorubicin; type: cell-based, human; details: MCF7/ADR cells compared with MCF7 cells; doxorubicin 0, 1, 2, 10, 25 μM; 24, 48, 72 hours; FIG. 2A
Experimental: A human breast cancer maternal cell line, MCF-7 (Korean Cell Line Bank), was continuously exposed to 1 μM of a drug, doxorubicin (Sigma). In this case, the maternal cell line was cultured in […] for at least one week to establish a breast cancer cell MCF7/ADR having induced drug resistance. Here, the cell culture was performed at 37° C. and 5% CO^2 in a DMEM medium (Hyclon, Logan, Utah) supplemented with 10% FBS and 1% penicillin.
To evaluate cytotoxicity of the anti-cancer agent (doxorubicin), a cell viability assay was performed using an MTT assay. First, cells were plated on a 96-well plate at a density of 5×10^3 cells/well, treated with the drug, and then cultured for 24, 48, and 72 hours. Thereafter, each well was treated with 5 mg/ml of MTT (AMRESCO), and the cells were cultured at 37° C. for 4 hours. Each well was treated with DMSO ([…]) to dissolve a formazan salt, and the amount of the formazan salt was determined by measuring an OD value at 540 nm using a microplate reader (Tecan Austria GmbH, Austria). […]
After 24, 48, and 72 hours when the MCF7 and MCF7/ADR cells were treated with doxorubicin (0, 1, 2, 10, and 25 μM), the cell viabilities were determined.

xenografted tumor = details: administered to an animal into which tumor has been xenografted; cited from earlier work

siEXT1: siRNA against EXT1 gene (Bioneer siRNA No. 1049149); sense SEQ ID NO: 1, anti-sense SEQ ID NO: 2 (sense CACUUCUGGAUAACUCUA; antisense UAGAGUUAUCCCAGAAGUG; listed as RNA, chemistry not given here)
mRNA expression of markers (CD44, Integrin-α6, P-gp, Vimentin, N-cadherin, E-cadherin) (MCF7/ADR cells [1]): reduced
expression of phosphorylated Akt (p-Akt) [2]: increased
expression of phosphorylated PI3K (p-PI3K) [2]: increased
expression of β-catenin [2]: decreased
CD44+/CD24− population decreased by (MCF7/ADR cells [3]): approximately 5.09%
number of the cancer stem cells (MCF7/ADR cells [3]): decreased
cell viability of common cancer cells (common cancer cells): no change
ALDH+ population decreased by (MCF7/ADR cells [4]): approximately 2.1%
expression of P-glycoprotein (P-glycoprotein (P-gp)): down-regulated
number and size of the mammospheres (MCF7/ADR cells [5]): significantly reduced
self-proliferation ability (MCF7/ADR cells [5]): lowered

siCD109: siRNA against CD109 gene (Bioneer siRNA No. 1027641); sense SEQ ID NO: 5, anti-sense SEQ ID NO: 6 (sense GAGUACUGGAGCGGAUCUA; antisense UAGAUCCGUCCAGUACUC; listed as RNA, chemistry not given here)
mRNA expression of markers (CD44, N-cadherin) (MCF7/ADR cells [1]): reduced
expression of phosphorylated Akt (p-Akt) [2]: increased
expression of phosphorylated PI3K (p-PI3K) [2]: increased
expression of β-catenin [2]: decreased
number of the cancer stem cells (MCF7/ADR cells [3]): decreased
cell viability of common cancer cells (common cancer cells): no change
expression of P-glycoprotein (P-glycoprotein (P-gp)): down-regulated
self-proliferation ability (MCF7/ADR cells [5]): lowered

COc1cccc2c1C(=O)c1c(O)c3c(c(O)c1C2=O)C[C@@](O)(C(=O)CO)C[C@@H]3O[C@H]1C[C@H](N)[C@H](O)[C@H](C)O1 [doxorubicin]
cell viability against doxorubicin (MCF7 and MCF7/ADR cells): higher cell viability

siLDHB: siRNA against LDHB gene (Bioneer siRNA No. 1083399); sense SEQ ID NO: 3, anti-sense SEQ ID NO: 4 (sense GAUUCAUCCCGUGUCAACA; antisense UGUUGACACGGGAUGAAUC; listed as RNA, chemistry not given here)
mRNA expression of markers (CD44, Integrin-α6, P-gp, Vimentin, N-cadherin, E-cadherin) (MCF7/ADR cells [1]): reduced
expression of phosphorylated Akt (p-Akt) [2]: increased
expression of phosphorylated PI3K (p-PI3K) [2]: increased
expression of β-catenin [2]: decreased
CD44+/CD24− population decreased by (MCF7/ADR cells [3]): ~5.52%
number of the cancer stem cells (MCF7/ADR cells [3]): decreased
cell viability of common cancer cells (common cancer cells): no change
ALDH+ population decreased by (MCF7/ADR cells [4]): ~3.21%
expression of P-glycoprotein (P-glycoprotein (P-gp)): down-regulated
number and size of the mammospheres (MCF7/ADR cells [5]): significantly reduced
self-proliferation ability (MCF7/ADR cells [5]): lowered

siEFEMP2: siRNA against EFEMP2 gene (Bioneer siRNA No. 1045872); sense SEQ ID NO: 7, anti-sense SEQ ID NO: 8 (sense CCCAAACCUGUGUCAACUU; antisense AAGUUGACACAGGUUUGGG; listed as RNA, chemistry not given here)
mRNA expression of markers (CD44, N-cadherin) (MCF7/ADR cells [1]): reduced
expression of phosphorylated Akt (p-Akt) [2]: increased
expression of phosphorylated PI3K (p-PI3K) [2]: increased
expression of β-catenin [2]: decreased
number of the cancer stem cells (MCF7/ADR cells [3]): decreased
cell viability of common cancer cells (common cancer cells): no change
expression of P-glycoprotein (P-glycoprotein (P-gp)): down-regulated
self-proliferation ability (MCF7/ADR cells [5]): lowered

siSERPINE1: siRNA against SERPINE1 gene (Bioneer siRNA No. 1135690); sense SEQ ID NO: 11, anti-sense SEQ ID NO: 12 (sense CACACAAAAGGUAUGAUCA; antisense UGAUCAUACCUUUUGUGUG; listed as RNA, chemistry not given here)
mRNA expression of markers (CD44, N-cadherin) (MCF7/ADR cells [1]): reduced
expression of phosphorylated Akt (p-Akt) [2]: increased
expression of phosphorylated PI3K (p-PI3K) [2]: increased
expression of β-catenin [2]: decreased
number of the cancer stem cells (MCF7/ADR cells [3]): decreased
cell viability of common cancer cells (common cancer cells): no change
expression of P-glycoprotein (P-glycoprotein (P-gp)): down-regulated
self-proliferation ability (MCF7/ADR cells [5]): lowered

CC1=C2C[C@H]3[C@@H](CC=C4C[C@@H](O)CC[C@@]43C)[C@@H]2CC[C@]12O[C@@H]1C[C@H](C)CN[C@H]1[C@H]2C [cyclopamine]
tumor size in xenografted animal (xenografted tumor): dramatically contracted

siRASIP1: siRNA against RASIP1 gene (Bioneer siRNA No. 1126933); sense SEQ ID NO: 9, anti-sense SEQ ID NO: 10 (sense CUGGAUAGUAACCCUUUCA; antisense UGAAAGGGUUACUAUCCAG; listed as RNA, chemistry not given here)
mRNA expression of markers (CD44, N-cadherin) (MCF7/ADR cells [1]): reduced
expression of phosphorylated Akt (p-Akt) [2]: increased
expression of phosphorylated PI3K (p-PI3K) [2]: increased
expression of β-catenin [2]: decreased
number of the cancer stem cells (MCF7/ADR cells [3]): decreased
cell viability of common cancer cells (common cancer cells): no change
expression of P-glycoprotein (P-glycoprotein (P-gp)): down-regulated
self-proliferation ability (MCF7/ADR cells [5]): lowered
